Laboratory results from patent US20120232038A1, “CRYSTALLINE FORMS OF (3R, 3AS, 6AR) - HEXAHYDROFURO [2,3-B] FURAN-3-YL (1S,2R) - (1-{4-[ (DIETHOXYPHOSPHORYL) METHOXY] PHENY1}-3-HYDROXY-4- [4-METHOXY-N- (2-METHYLPROPYL) BENZENESUL - FONAMIDO] BUTAN-2-YL) CARBAMATE” (Gilead Sciences, Inc., priority 2009, published 2012).

Assays:
Type in all cases: physicochemical
[1] = Form stability on extended exposure to water (water slurry, XRPD); settings: slurried in water, 2 week sample, XRPD (FIG. 6)
Method: Approximately 15-50 mg of Compound I are weighed and transferred to each of fifteen vials each equipped with a mini magnetic stir bar. The starting material used for this experiment is an amorphous solid based on the X-ray powder diffraction (XRPD) pattern (See FIG. 1). To each vial is added 1 mL of various solvents. The slurries are allowed to stir for two weeks at room temperature (˜22° C.). XRPD characterization of the excess solids were performed at ˜1 week and ˜2 week time points. A sample of 300 μL of the suspension is removed from each vial, transferred to a centrifuge filter (Costar, 0.45 micron) and centrifuged at 1000 rpm for 2 minutes. Solids in the wet cake form are analyzed using XRPD analysis (PANalytical X'Pert PRO X-ray powder diffractometer). This diffractometer uses Cu-Ka radiation and it operates under reflection mode. Scan range is from 2 to 40 degree 2 theta. After air drying the small sample, (XRPD) analysis is performed again to monitor any change in the diffraction pattern between the wet and dry material. TGA is run on the saturated solution to determine the solubility of the equilibrating solids in the solvent. […]

[2] = Dynamic vapor sorption of Compound I crystalline Form I
Text: (§1) Other benefits that crystalline Form I offers include but are not limited to purification and isolation of the crystalline form with respect to the solution and facilitation of storage and handling during the formulation development and manufacturing of drug product.

[3] = Moisture uptake of Compound I amorphous material at room temperature under controlled relative humidity
Text: as §1

| SMILES | solid form after extended exposure to water [1] | hygroscopicity [2] | water absorbed ([2]; 90% relative humidity) [%] | Weight gain after 5 days ([3]; 75% Relative Humidity) [%] | Weight gain after 11 days ([3]; 75% Relative Humidity) [%] | Weight gain after 5 days ([3]; 97% Relative Humidity) [%] |
| --- | --- | --- | --- | --- | --- | --- |
| CCOP(=O)(COc1ccc(CC(NC(=O)OC2CO[C@H]3OCC[C@@H]23)[C@H](O)CN(CC(C)C)S(=O)(=O)c2ccc(OC)cc2)cc1)OCC (stereo partly drawn) [Form I] | remains as the same form | not hygroscopic | 0.4 |  |  |  |
| CCOP(=O)(COc1ccc(CC(NC(=O)OC2CO[C@H]3OCC[C@@H]23)[C@H](O)CN(CC(C)C)S(=O)(=O)c2ccc(OC)cc2)cc1)OCC (stereo partly drawn) [Compound I amorphous material] |  |  |  | 0.6 | 1.0 | 3.8 |
